Patent publication US20090270497A1, “Treatment of Non-Localized Inflammation with pan-HDAC Inhibitors” (PHARMACYCLICS, INC., priority 2008, published 2009)

Legend:
[1] = tested on: sepsis by treatment with LPS; experiment: Survival after induction of sepsis by LPS (endotoxemia); format: in vivo
Experimental: At 72 hours after induction of sepsis by treatment with LPS, a subject has a 0% chance of survival. […] This remains constant through 144 hours.
Culture media was collected and analyzed by ELISA for TNFα, IL-1β and IL-6 proteins (n=3±S.D.). […] (FIG. 4).

[2] = tested on: Class I and Class II HDAC isoforms; experiment: HDAC isoform inhibition (all Class I and Class II); format: biochemical
[3] = tested on: RAW cells; experiment: Cytokine mRNA expression by RT-PCR in LPS-treated RAW cells; format: cell-based; conditions: 0.1 μM for 30 min, then 100 ng/ml LPS 6 hours
Experimental: RT-PCR was performed (30 cycles), and PCR products were analyzed on a 1% agarose gel. […] (FIG. 1)

[4] = tested on: inducible nitric oxide synthase (iNOS); experiment: iNOS expression by Western blot in LPS-treated RAW cells; format: cell-based; conditions: various amounts for 30 min, LPS 100 ng/ml 16 hours
Experimental: Cell lysates were analyzed by Western blot with antibodies to the inducible nitric oxide synthase (iNOS) (above) and HuR (below) as a negative control. […] (FIG. 3).

[5] = tested on: RAW cells; experiment: Secreted cytokine protein by ELISA in LPS-treated RAW cells; format: cell-based; conditions: 0.1 μM for 30 min, LPS 100 ng/ml for 16 hr
Text: Culture media was collected and analyzed by ELISA for TNFα, IL-1β and IL-6 proteins (n=3±S.D.). […] (FIG. 2).

Question: For CN(C)Cc1c(C(=O)NCCOc2ccc(C(=O)NO)cc2)oc2ccccc12 [Compound 1], which chances of survival ([1]; 25 μg/gram of body weight, at 72 hours after LPS, steady through 144 hours) is on record?
Answer: 30%

Question: And the chances of survival ([1]; 50 μg/gram of body weight, constant through 144 hours after LPS)?
Answer: 70%

Question: What about the “increase of survival from endotoxemia” value ([1]; FIG. 4 legend, dose not stated) of the same molecule?
Answer: 70%

Question: And the “inhibition of all Class I and Class II HDAC isoforms” value [2]?
Answer: inhibits all Class I and Class II HDAC isoforms

Question: And the “RNA level of IL-1β” value [3]?
Answer: decreased

Question: And the “RNA level of IL-6” value [3]?
Answer: decreased

Question: And the “RNA level of TNF” value [3]?
Answer: decreased

Question: And the iNOS expression [4]?
Answer: decreases in a dose-dependant manner

Question: And the “IL-1β protein in culture media” value [5]?
Answer: decreases

Question: What about the “IL-6 protein in culture media” value [5] of the same molecule?
Answer: decreases

Question: What about the “TNFα protein in culture media” value [5] of the same molecule?
Answer: decreases
